Laboratory results taken from PMC5471521, “Novel selective β1-adrenoceptor antagonists for concomitant cardiovascular and respiratory disease” (The FASEB Journal, 2017).

Experiments:
human β1-AR [1] = molecular target: T1, human β1-AR (Homo sapiens, UniProt P08588); experiment: Duration of ligand binding (washout, 3H-CGP12177 whole-cell binding in CHO-β1 cells); conditions: greater shift = shorter duration of binding; mean ± SEM
T1 construct: expressed in transfected cells
Experimental: A method that involved ligand washout was used as described ([44]). Cells were incubated with either competing ligand and ^3H-CGP12177 for 2 h (control plate), or competing ligand alone for 2 h (duration plate). After 2 h, the control plate was processed while the duration plate was washed, and ^3H-CGP12177 alone was added to wells and incubated for a second 2 h before processing. […] Relative measures of ligand duration of binding are indicated by the degree of rightward shift of displacement curves ([44]).

human β1-AR [2] = molecular target: T1, human β1-AR; experiment: 3H-cAMP accumulation agonist response in CHO-β1 cells; type: cell-based; conditions: agonist mode
Experimental: Confluent cells were examined (24-well plates, 5 h incubation at 37°C) as described in Baker ([45]). Antagonist Kd values were calculated from a rightward shift of the agonist concentration response curve by using the Gaddum equation as previously described ([46]).

[3] = Metabolic stability, rat liver microsomes; type: in vitro ADME; conditions: in the presence of NAD+, NADPH, or in the absence of cofactors
Experimental: NDD-713.HCl and -825.HCl were incubated (0.02, 0.1, or 0.5 μM at 37°C, 120 min) with human (XenoTech, Kansas City, KS, USA) or rat liver microsomes (BD Biosciences, Brea, CA, USA) at 0.4 mg/ml protein concentration. Metabolic reaction was initiated by addition of NADPH-regenerating system or NADPH-regenerating system with uridine diphosphate glucuronic acid. Samples were quenched at time points by acetonitrile addition. Control samples, which contained neither NADPH, nor uridine diphosphate glucuronic acid, were monitored for degradation. Compound concentrations were determined by ultraperformance LC-MS (UPLC-MS) relative to calibration standards that were prepared in quenched liver microsomes and fitted to exponential decay functions to determine first-order rate constants (k) for substrate depletion. These were used to calculate in vitro intrinsic clearance (CLint) values: CLint = k/microsomal protein content (0.4 mg protein/ml). Metabolic stability assays that used rat liver cytosol (BD Biosciences), human cryopreserved hepatocytes, or rat hepatocytes were carried out similarly. Average viable cell concentrations were determined by Trypan Blue exclusion methods (in the absence of test compounds). Studies were carried out by CDCO.

[4] = tested on: HR (β1) and HQC (β2) in conscious rats; experiment: In vivo β1- vs. β2-selectivity, intravenous β-blocker, conscious rats (isoprenaline responses); set-up: species or system rat; conditions: i.v. 2 mg/kg bolus + 1 mg/kg/h infusion, n = 4
Experimental: Adult male Sprague-Dawley rats, weighing 300−400 g, were chronically instrumented with pulsed Doppler flow probes and intravascular catheters for cardiovascular monitoring and drug administration in a 2-stage surgical protocol as described ([51]). Surgery was performed under general anesthesia (fentanyl and medetomidine, 300 μg/kg of each, i.p.), with reversal and postoperative analgesia provided by atipamezole (1 mg/kg, s.c.) and buprenorphine (0.02 mg/kg, s.c.). Experiments were performed with animals that were fully conscious and unrestrained in home cages and given free access to food and water. Cardiovascular variables were recorded by using a customized, computer-based system (Instrument Development Engineering Evaluation, Maastrich Instruments Bv, Maastrich, The Netherlands) with raw data sampled every 2 ms. Hindquarters vascular conductance (HQC) was calculated as Doppler shift (flow)/mean arterial pressure.
Isoprenaline infusions were repeated during the final 60 min of β-blocker infusion and 3–4 and 23–24 h after β-blocker infusions finished.
Isoprenaline responses shown are absolute values for HR and HQC before the first dose of isoprenaline (baseline) and during the third minute of infusion of each dose. Values at baseline and during the highest isoprenaline dose were tested for statistical significance by using a nonparametric ANOVA test with correction for repeat measures [Quade test ([52])]. A value of P < 0.05 was taken as significant.

hERG channels = hERG channels (Homo sapiens, UniProt Q12809); experiment: hERG automated patch-clamp electrophysiology
hERG channels, sequence (Q12809 whole entry): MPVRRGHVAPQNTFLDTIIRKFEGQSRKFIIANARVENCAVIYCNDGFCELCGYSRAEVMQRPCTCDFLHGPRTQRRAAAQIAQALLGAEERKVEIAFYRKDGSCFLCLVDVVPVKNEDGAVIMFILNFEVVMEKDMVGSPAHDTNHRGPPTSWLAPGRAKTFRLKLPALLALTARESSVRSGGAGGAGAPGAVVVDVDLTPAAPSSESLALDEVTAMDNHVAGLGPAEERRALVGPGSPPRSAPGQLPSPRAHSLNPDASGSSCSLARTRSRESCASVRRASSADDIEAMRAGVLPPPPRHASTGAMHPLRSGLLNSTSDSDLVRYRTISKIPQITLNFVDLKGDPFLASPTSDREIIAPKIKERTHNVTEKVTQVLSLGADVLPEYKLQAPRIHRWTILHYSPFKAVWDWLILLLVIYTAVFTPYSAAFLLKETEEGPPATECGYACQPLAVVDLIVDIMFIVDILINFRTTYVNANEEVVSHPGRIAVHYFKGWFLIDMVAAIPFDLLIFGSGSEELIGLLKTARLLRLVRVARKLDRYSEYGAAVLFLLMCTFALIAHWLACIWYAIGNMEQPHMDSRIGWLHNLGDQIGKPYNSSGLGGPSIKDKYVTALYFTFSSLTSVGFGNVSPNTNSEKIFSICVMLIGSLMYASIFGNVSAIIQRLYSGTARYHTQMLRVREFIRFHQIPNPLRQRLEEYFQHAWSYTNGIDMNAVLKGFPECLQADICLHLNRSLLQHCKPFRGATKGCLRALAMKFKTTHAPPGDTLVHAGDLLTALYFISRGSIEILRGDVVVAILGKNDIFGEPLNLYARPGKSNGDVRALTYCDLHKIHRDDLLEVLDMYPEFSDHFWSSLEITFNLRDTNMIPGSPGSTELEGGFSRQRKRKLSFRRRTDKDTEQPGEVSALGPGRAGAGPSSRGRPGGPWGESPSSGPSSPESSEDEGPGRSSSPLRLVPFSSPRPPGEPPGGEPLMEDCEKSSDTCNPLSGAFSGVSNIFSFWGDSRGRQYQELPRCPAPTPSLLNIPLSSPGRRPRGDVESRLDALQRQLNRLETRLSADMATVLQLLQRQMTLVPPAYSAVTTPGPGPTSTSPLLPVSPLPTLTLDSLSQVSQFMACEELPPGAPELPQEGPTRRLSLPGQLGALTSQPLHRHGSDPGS
Experimental: In addition, the potential of the compound to inhibit hERG channels was tested by using an automated patch-clamp electrophysiological assay (BioFocus, Cambridge, United Kingdom; using the Precision hERG-HEK recombinant cell line from on an Ion Works Quattro automated electrophysiology platform; Millipore, Billerica, MA, USA).

[5] = tested on: panel of 80 receptors and ion channels; experiment: Cerep in vitro receptor selectivity profiling; type: binding; conditions: CGP20712A and LK204-545 at 10 μM, NDD-713 at 4.8 μM, NDD-825 at 2.4 μM
Experimental: Ki (inhibition constant) was calculated by using the Cheng-Prusoff equation from the mean of duplicate determinations in cell-based receptor radioligand-binding assays. Cerep in vitro pharmacology profiling service was used (see the Supplemental Data for a list of the assays used).

CYP3A4 = molecular target: T2, CYP3A4 (Homo sapiens, UniProt P08684); experiment: P450 in vitro clearance, recombinant Supersomes; type: in vitro ADME; conditions: 2 μM, hydrochloride salts used
T2 construct: purchased BD Biosciences
T2 sequence (P08684 whole entry): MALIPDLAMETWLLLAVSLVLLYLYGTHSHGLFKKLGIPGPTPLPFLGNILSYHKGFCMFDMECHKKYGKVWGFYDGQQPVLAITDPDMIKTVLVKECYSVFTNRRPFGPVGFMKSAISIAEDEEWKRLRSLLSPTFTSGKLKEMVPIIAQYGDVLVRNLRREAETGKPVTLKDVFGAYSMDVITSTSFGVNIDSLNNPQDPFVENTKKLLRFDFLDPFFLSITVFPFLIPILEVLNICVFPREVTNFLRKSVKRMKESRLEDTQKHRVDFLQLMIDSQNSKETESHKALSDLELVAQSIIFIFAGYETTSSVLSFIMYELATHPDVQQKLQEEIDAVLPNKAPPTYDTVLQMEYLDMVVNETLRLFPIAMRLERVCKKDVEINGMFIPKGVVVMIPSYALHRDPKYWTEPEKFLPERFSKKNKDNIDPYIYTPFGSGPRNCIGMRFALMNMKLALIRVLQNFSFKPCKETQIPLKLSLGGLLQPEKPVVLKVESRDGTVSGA
Experimental: NDD-713.HCl and -825.HCl (2 μM) and cytochrome P450 (P450) reference substrates (see Supplemental Data for full details) were incubated (37°C) with selected recombinant human P450 isoforms (CYP1A2, CYP2A6, CYP2B6, CYP2C8, CYP2C9, CYP2C19, CYP2D6 CYP2E1, and CYP3A4) in heterologously expressed P450 Supersomes (BD Biosciences) that were suspended in […] Tris-HCl buffer (pH 7.4; for CYP2C9) or 100 mM phosphate buffer (pH 7.4; for the other isoforms) at final P450 concentrations of 85 pmol/ml. Reactions were initiated by additions of an NADPH-regenerating system and quenched at time points over 60 min (reference probes) or 120 min (test compounds) by acetonitrile. Quenched samples were centrifuged and supernatants were collected. NDD-713, -825, and probe metabolites were determined by UPLC-MS relative to calibration standards prepared in quenched matrix, and %substrate that remained was calculated relative to the initial sample concentration. The %substrate that remained vs. time was fitted to exponential decay functions to determine the pseudo first-order rate constant (k/min) for substrate depletion. These were normalized to P450 concentrations (pmol/ml) to obtain in vitro CLint values: CLint, in vitro (μl/min/pmol P450) = [k (min^−1)/P450 concentration […]] × 1000. Studies were carried out by CDCO.

T1 sequence (P08588 whole entry): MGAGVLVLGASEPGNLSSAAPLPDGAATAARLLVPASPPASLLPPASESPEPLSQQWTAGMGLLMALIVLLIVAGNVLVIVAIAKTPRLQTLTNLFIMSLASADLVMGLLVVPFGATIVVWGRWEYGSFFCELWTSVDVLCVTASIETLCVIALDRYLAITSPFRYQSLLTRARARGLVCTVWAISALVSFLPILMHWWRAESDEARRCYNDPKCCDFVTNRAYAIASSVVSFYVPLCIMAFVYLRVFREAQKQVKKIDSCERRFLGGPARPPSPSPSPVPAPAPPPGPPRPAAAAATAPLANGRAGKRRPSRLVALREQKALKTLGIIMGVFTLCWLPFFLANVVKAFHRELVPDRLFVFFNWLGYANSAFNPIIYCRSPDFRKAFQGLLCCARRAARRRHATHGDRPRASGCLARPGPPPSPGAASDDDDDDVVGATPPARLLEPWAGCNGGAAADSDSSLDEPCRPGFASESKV

O=C1NCc2cc(OCCNC[C@H](O)COc3ccc4c(c3)OC[C@@H](COCC3CC3)O4)ccc21 [NDD-825]
Log shift (rightward shift of washout curve vs control) (human β1-AR [1]): 1.62 ± 0.11
Maximum 3H-cAMP response relative to isoprenaline (human β1-AR [2]): No ^3H-cAMP responses were observed
microsomal CLint [3]: 0.18 ± 0.2 µL/min/mg
Effect on basal and isoprenaline-stimulated HR (β1) [4]: suppressed basal and isoprenaline-induced HR
Effect on isoprenaline HQC response (β2) [4]: no effect on HQC responses
IC50 (hERG channels): > 10 µM
Off-target binding in receptor and ion channel panel [5]: poor affinity for most other GPCRs and ion channels
P450 in vitro clearance CLint, CYP3A4 (CYP3A4): 0.17 μl/min/pmol P450

NC(=O)c1ccc(OCCNC[C@H](O)COc2ccc3c(c2)OC[C@@H](COCC2CC2)O3)cc1 [NDD-713]
Log shift (rightward shift of washout curve vs control) (human β1-AR [1]): 1.75 ± 0.08
Maximum 3H-cAMP response relative to isoprenaline (human β1-AR [2]): No ^3H-cAMP responses were observed
microsomal CLint [3]: < 0.1 µL/min/mg
Effect on basal and isoprenaline-stimulated HR (β1) [4]: suppressed basal and isoprenaline-induced HR
Effect on isoprenaline HQC response (β2) [4]: no effect on HQC responses
IC50 (hERG channels): > 10 µM
Off-target binding in receptor and ion channel panel [5]: poor affinity for most other GPCRs and ion channels
P450 in vitro clearance CLint, CYP3A4 (CYP3A4): 0.07 μl/min/pmol P450
